Reference: patent US20040180855A1, “Methods of treating thrombosis with reduced risk of increased bleeding times” (priority 2003, published 2004)

Experiments:
FXIIa = biological target: T1, FXIIa (Homo sapiens, UniProt P00748); assay: Selectivity assay FXIIa; format: biochemical; conditions: Table 3
T1 construct: purchased American Diagnostica

FIXa = biological target: T2, FIXa (Homo sapiens, UniProt P00740); assay: Selectivity assay FIXa; format: biochemical; conditions: Table 3
T2 construct: purchased American Diagnostica

human plasma [1] = assay: PT clotting time, human plasma; format: biochemical; conditions: highest concentration tested 100 μM
Protocol: The term “PT” time as used herein refers to prothrombin times which is intended to refer to the time elapsed between formation of an assay solution and detection of clot formation in the assay solution with use of a PT assay, i.e., an assay employing thromboplastin reagents that are used for evaluating blood coagulation associated with the extrinsic pathway.
(§1) PT and APTT clotting times were determined as described in Balasubramanian et al., J. Med. Chem., Vol. 36 (1993), at pp. 300-03, incorporated herein by reference. The whole blood aggregation response of rat platelets to collagen was determined using the impedance procedure for a Model 560-CA Chrono-Log aggregometer (Havertown, Pa.).

human plasma [2] = assay: APTT clotting time, human plasma; format: biochemical
From the text: The term “APTT” as used herein means “activated partial thromboplastin times” which is intended to refer to the time elapsed between the formation of an assay solution and the detection of clot formation in the assay solution with use of an APTT assay, i.e., an assay employing an intrinsic pathway activator, such as micronized silica, and a phospholipid component of a thromboplastin reagent (without tissue factor protein) for evaluating coagulation associated with the intrinsic pathway.
as §1

[3] = test system: stasis-VT (vena cava thrombosis); assay: Venous thrombosis, stasis VT model; format: in vivo; conditions: rat stasis VT
Protocol: General Surgical Preparation Male Sprague Dawley rats (310 to 390 g) were anesthetized with Na-pentobarbital (50 mg/kg i.p.). The left jugular vein was cannulated with PE-50 tubing for drug administration, and the trachea was intubated with PE-205 tubing to ensure airway patency. […] Statistical Analysis In the venous and arterial thrombosis procedures, treatment effects on thrombus weight, baseline blood flow, and average blood flow during thrombosis were determined by analysis of variance with Dunnett's test for comparison to the vehicle group. […] Treatment effects on bleeding times were determined by analysis of variance with Dunnett's test for comparison to the vehicle group. Both post-treatment and pre-treatment bleeding times and the relative bleeding time increases in sec were analyzed. […]

rat plasma (ex vivo PT) = assay: Ex vivo clotting time PT; format: in vivo; conditions: loading plus sustaining i.v. infusion
Protocol: Ex Vivo Clotting Times Ex vivo clotting time assays were used to determine the level of anticoagulation achieved in the thrombosis and bleeding time procedures, described above. A small organic compound for inhibiting Factor XIa was administered at doses (mg/kg+mg/kg/hr) of 0.5+0.5 (n=3), 2+2 (n=4), 6+6 (n=3), 12+12 (n=3) and 24+24 (n=10). Carotid artery blood (0.6 mL drawn into 1/10 volume of 3.8% Na-citrate) was sampled before (0 min control) and at 5, 15, 30, 60 and 90 min after the start of the compound infusion. The APTT was determined in freshly prepared plasma from each sample using the standard procedure for Dade Actin FSL reagent (Baxter Healthcare Corp., Miami, Fla.). The PT was determined in some animals from the 6+6 (n=3), 12+12 (n=3) and 24+24 (n=2) dose groups using Dade Thromboplastin●C reagent.
Plasma was sampled before (0 min control) and after the infusion, at intervals of 5, 15, 30, 60 and 90 min after initiating the infusion. Average APTT increases over the 15-90 min period, an interval most applicable to thrombosis and bleeding time protocols, were calculated. Control APTT values averaged 19.9±1.3 seconds overall. The PT was unaltered as expected from in vitro results. […] The range of efficacious doses in venous and arterial thrombosis (2+2, 6+6, 12+12; mg/kg+mg/kg/hr) produced an APTT increase of about 2.8 times control.

[4] = test system: thrombosis and bleeding time in anesthetized rats; assay: Differential effect on thrombosis inhibition and bleeding time prolongation (FIG. 7); format: in vivo, rat; conditions: versus thrombin and FXa inhibitors (16A, 16B)
Protocol: FIG. 7 reports an analysis of the differential effect on thrombosis inhibition and bleeding time prolongation in anesthetized rats for the Factor XIa inhibitor, as compared with the “direct acting” thrombin and FXa active site inhibitors, namely, compounds 16A and 16B (thrombin and FXa active site inhibitors). The thrombin inhibitor (open symbols), FXa inhibitor (dotted symbols) and FXIa inhibitor (line symbols) were tested for effects on arterial thrombosis (squares), venous thrombosis (triangles) and bleeding time (circles) in rat models. Compounds were administered as loading plus sustaining infusion and the total dose is given on the x-axis.

T2 sequence (P00740 227-461 limits assumed): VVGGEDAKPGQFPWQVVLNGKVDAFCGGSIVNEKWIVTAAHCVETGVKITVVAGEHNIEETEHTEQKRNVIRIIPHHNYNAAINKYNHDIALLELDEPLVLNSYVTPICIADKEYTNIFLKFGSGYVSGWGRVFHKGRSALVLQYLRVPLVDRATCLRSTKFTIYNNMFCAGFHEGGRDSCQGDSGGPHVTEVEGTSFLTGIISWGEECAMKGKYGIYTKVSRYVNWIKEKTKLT
T2 sequence (P00740 47-191 partner limits assumed): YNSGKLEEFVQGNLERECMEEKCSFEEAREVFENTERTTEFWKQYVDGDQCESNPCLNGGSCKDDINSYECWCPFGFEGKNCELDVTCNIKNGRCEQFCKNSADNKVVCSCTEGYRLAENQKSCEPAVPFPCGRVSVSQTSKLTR
T1 sequence (P00748 373-615 limits assumed, other chains not shown): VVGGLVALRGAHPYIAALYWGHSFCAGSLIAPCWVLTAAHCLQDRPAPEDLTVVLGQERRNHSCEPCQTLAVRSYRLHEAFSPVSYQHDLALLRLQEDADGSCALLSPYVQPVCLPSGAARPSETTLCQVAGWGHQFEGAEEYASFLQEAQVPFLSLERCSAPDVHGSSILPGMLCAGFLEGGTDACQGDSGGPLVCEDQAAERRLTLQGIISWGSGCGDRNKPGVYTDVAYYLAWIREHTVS

CC(C)(C)NC(=O)N1CCN(C(=O)N2C(=O)[C@H](CCCNC(=N)N)[C@H]2C(=O)O)CC1 [Example 4]
IC50 (FXIIa): > 33 µM
IC50 (FIXa): 17.4 µM
Clotting time PT (human), concentration that doubles clotting time (human plasma [1]): >100 µM
Clotting time APTT (human), concentration that doubles clotting time (human plasma [2]): 0.6 µM
effect on thrombus weight ([3]; i.v. 2+2 mg/kg+mg/kg/hr): little effect
reduction in thrombus weight ([3]; i.v. 6+6 mg/kg+mg/kg/hr, FIG. 4): 64%
effect on ex vivo PT (rat plasma (ex vivo PT)): unaltered
separation between bleeding time prolongation and efficacy in venous and arterial thrombosis [4]: substantially greater separation
